Results reported in PubChem BioAssay AID1259411 (Chemical Carcinogenesis Research Information System (CCRIS), 2018).
Calls of active or inactive are those of the source. How the calls were made is not given here.

Tested on: rodent carcinogenicity bioassays, tumor incidence
Assay: CCRIS carcinogenicity studies
How it was run: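 NCI-built, expert-reviewed records of carcinogenicity and related test outcomes (mutagenicity, tumor promotion/inhibition) compiled from published and report sources, historical span 1985-2011, not updated.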

CCCN(CCC)c1c([N+](=O)[O-])cc(C(F)(F)F)cc1[N+](=O)[O-]
carcinogen call (Species: MOUSE, Strain/Sex: B6C3F1/FEMALE, Route: ORAL, Dose: 0, 563, 2250, 4500 PPM IN DIET FOR 2 YR (STUDY DURATION: 2 YR), Dose: 0, 563, 2250, 4500 PPM IN DIET FOR 2 YR (STUDY DURATION: 2 YR)): inactive; negative
carcinogen call (Species: MOUSE, Strain/Sex: B6C3F1/FEMALE, Route: ORAL, Dose: 0, 2740, 5192 PPM IN DIET, TWA, Dose: 0, 2740, 5192 PPM IN DIET, TWA, Tumor Site: Type of Lesion: LUNG: ALVEOLAR/BRONCHIOLAR ADENOMA OR CARCINOMA, LIVER: HEPATOCELLULAR ADENOMA OR CARCINOMA): active; positive
carcinogen call (Species: MOUSE, Strain/Sex: B6C3F1/MALE, Route: ORAL, Dose: 0, 563, 2250, 4500 PPM IN DIET FOR 2 YR (STUDY DURATION: 2 YR), Dose: 0, 563, 2250, 4500 PPM IN DIET FOR 2 YR (STUDY DURATION: 2 YR)): inactive; negative
carcinogen call (Species: MOUSE, Strain/Sex: B6C3F1/MALE, Route: ORAL, Dose: 0, 2000, 3744 PPM IN DIET, TWA, Dose: 0, 2000, 3744 PPM IN DIET, TWA): inactive; negative
carcinogen call (Species: MOUSE, Strain/Sex: NMRI/FEMALE, Route: ORAL, Dose: 0, 50, 200, 800 MG/KG IN DIET FOR 104 WK (STUDY DURATION: 104 WK), Dose: 0, 50, 200, 800 MG/KG IN DIET FOR 104 WK (STUDY DURATION: 104 WK)): inactive; negative
carcinogen call (Species: MOUSE, Strain/Sex: NMRI/MALE, Route: ORAL, Dose: 0, 50, 200, 800 MG/KG IN DIET FOR 104 WK (STUDY DURATION: 104 WK), Dose: 0, 50, 200, 800 MG/KG IN DIET FOR 104 WK (STUDY DURATION: 104 WK)): inactive; negative
carcinogen call (Species: RAT, Strain/Sex: OSBORNE-MENDEL/FEMALE, Route: ORAL, Dose: 0, 4125, 7917 PPM IN DIET, TWA, Dose: 0, 4125, 7917 PPM IN DIET, TWA): inactive; negative
carcinogen call (Species: RAT, Strain/Sex: OSBORNE-MENDEL/MALE, Route: ORAL, Dose: 0, 4125, 8000 PPM IN DIET, TWA, Dose: 0, 4125, 8000 PPM IN DIET, TWA): inactive; negative
carcinogen call (Species: RAT, Strain/Sex: WISTAR/FEMALE, Route: ORAL, Dose: 0, 200, 800, 3200 MG/KG IN DIET FOR 122 WK (STUDY DURATION: 122 WK), Dose: 0, 200, 800, 3200 MG/KG IN DIET FOR 122 WK (STUDY DURATION: 122 WK)): inactive; negative
carcinogen call (Species: RAT, Strain/Sex: WISTAR/MALE, Route: ORAL, Dose: 0, 200, 800, 3200 MG/KG IN DIET FOR 122 WK (STUDY DURATION: WK), Dose: 0, 200, 800, 3200 MG/KG IN DIET FOR 122 WK (STUDY DURATION: WK)): inactive; negative

C1CSCN1
carcinogen call (Species: MOUSE, Strain/Sex: CD-1/FEMALE, Route: DERMAL, Dose: 0, 50 UMOL/0.1 ML DMSO 2/WK FOR 5 WK FOLLOWED 1 WK LATER BY 0.1 ML ACETONE 2/WK FOR 47 WK (STUDY DURATION: 52 WK)): inactive; negative

CC1CN(N=O)CO1 (stereo unspecified)
carcinogen call (Species: HAMSTER, Strain/Sex: SYRIAN/MALE, Route: INTRAGASTRIC, Dose: 0, 25 MG/ML IN 0.2 ML STERILIZED WATER 1/WK FOR 24 WK (TOTAL DOSE 120 MG) (STUDY DURATION: LIFESPAN), Tumor Site: Type of Lesion: LIVER: HEPATOCELLULAR CARCINOMA, ADENOMA, HEMANGIOSARCOMA, CHOLANGIOCARCINOMA, PANCREAS: DUCTAL CARCINOMA): active; positive
carcinogen call (Species: RAT, Strain/Sex: F344/FEMALE, Route: ORAL, Dose: 40 MG/L IN DRINKING WATER FOR 50 WK, Tumor Site: Type of Lesion: LIVER: HEPATOCELLULAR CARCINOMA, HEMANGIOENDOTHELIAL SARCOMA): active; positive

C=CC(=C)C
carcinogen call (Species: MOUSE, Strain/Sex: B6C3F1/MALE, Route: INHALATION, Dose: 0, 10, 70, 280, 700, 2200 PPM 8 HR/D 5 D/WK FOR 80 WK (STUDY DURATION: 104 WK), Dose: 0, 10, 70, 280, 700, 2200 PPM 8 HR/D 5 D/WK FOR 80 WK (STUDY DURATION: 104 WK), Tumor Site: Type of Lesion: LUNG: ALVEOLAR/BRONCHIOLAR ADENOMA OR CARCINOMA, LIVER: HEPATOCELLULAR ADENOMA OR CARCINOMA, HARDERIAN GLAND: ADENOMA, Tumor Site: Type of Lesion: LUNG: ALVEOLAR/BRONCHIOLAR ADENOMA OR CARCINOMA, LIVER: HEPATOCELLULAR ADENOMA OR CARCINOMA, HARDERIAN GLAND: ADENOMA): active; positive
carcinogen call (Species: MOUSE, Strain/Sex: B6C3F1/MALE, Route: INHALATION, Dose: 0, 70, 140, 2200 PPM 8 HR/D 5 D/WK FOR 40 WK (STUDY DURATION: 104 WK), Dose: 0, 70, 140, 2200 PPM 8 HR/D 5 D/WK FOR 40 WK (STUDY DURATION: 104 WK), Tumor Site: Type of Lesion: LUNG: ALVEOLAR/BRONCHIOLAR ADENOMA OR CARCINOMA, LIVER: HEPATOCELLULAR ADENOMA OR CARCINOMA, HARDERIAN GLAND: ADENOMA, Tumor Site: Type of Lesion: LUNG: ALVEOLAR/BRONCHIOLAR ADENOMA OR CARCINOMA, LIVER: HEPATOCELLULAR ADENOMA OR CARCINOMA, HARDERIAN GLAND: ADENOMA): active; positive
carcinogen call (Species: MOUSE, Strain/Sex: B6C3F1/MALE, Route: INHALATION, Dose: 0, 70, 220, 700, 2200, 7000 PPM 6 HR/D 5 D/WK FOR 26 WK FOLLOWED BY A 26-WK RECOVERY PERIOD (STUDY DURATION: 52 WK), Dose: 0, 70, 220, 700, 2200, 7000 PPM 6 HR/D 5 D/WK FOR 26 WK FOLLOWED BY A 26-WK RECOVERY PERIOD (STUDY DURATION: 52 WK), Tumor Site: Type of Lesion: LIVER: ADENOMA OR CARCINOMA, LUNG: ALVEOLAR/BRONCHIOLAR ADENOMA OR CARCINOMA, FORESTOMACH: PAPILLOMA OR CARCINOMA, HARDE, Tumor Site: Type of Lesion: LIVER: ADENOMA OR CARCINOMA, LUNG: ALVEOLAR/BRONCHIOLAR ADENOMA OR CARCINOMA, FORESTOMACH: PAPILLOMA OR CARCINOMA, HARDE): active; positive
carcinogen call (Species: MOUSE, Strain/Sex: B6C3F1/MALE, Route: INHALATION, Dose: 0, 280 PPM 8 HR/D 5 D/WK FOR 20 WK (STUDY DURATION: 104 WK), Tumor Site: Type of Lesion: HARDERIAN GLAND: ADENOMA, LIVER: ADENOMA): active; positive
carcinogen call (Species: MOUSE, Strain/Sex: B6C3F1/MALE, Route: INHALATION, Dose: 0, 2200 PPM 4 HR/D 5 D/WK FOR 20 WK (STUDY DURATION: 104 WK), Tumor Site: Type of Lesion: HARDERIAN GLAND: ADENOMA, LIVER: HEPATOCELLULAR ADENOMA OR CARCINOMA): active; positive
carcinogen call (Species: MOUSE, Strain/Sex: B6C3F1/MALE, Route: INHALATION, Dose: 0, 2200 PPM 4 HR/D 5 D/WK FOR 80 WK (STUDY DURATION: 104 WK), Tumor Site: Type of Lesion: LIVER: HEPATOCELLULAR ADENOMA OR CARCINOMA, HARDERIAN GLAND: ADENOMA): active; positive
carcinogen call (Species: RAT, Strain/Sex: F344/N/FEMALE, Route: INHALATION, Dose: 0, 220, 700, 7000 PPM 6 HR/D 5 D/WK FOR 105 WK (STUDY DURATION: 105 WK), Dose: 0, 220, 700, 7000 PPM 6 HR/D 5 D/WK FOR 105 WK (STUDY DURATION: 105 WK), Tumor Site: Type of Lesion: MAMMARY GLAND: FIBROADENOMA): active; positive
carcinogen call (Species: RAT, Strain/Sex: F344/N/MALE, Route: INHALATION, Dose: 0, 220, 700, 7000 PPM 6 HR/D 5 D/WK FOR 105 WK (STUDY DURATION: 105 WK), Dose: 0, 220, 700, 7000 PPM 6 HR/D 5 D/WK FOR 105 WK (STUDY DURATION: 105 WK), Tumor Site: Type of Lesion: KIDNEY: ADENOMA OR CARCINOMA, MAMMARY GLAND: FIBROADENOMA OR CARCINOMA, TESTES: ADENOMA, Tumor Site: Type of Lesion: KIDNEY: ADENOMA OR CARCINOMA, MAMMARY GLAND: FIBROADENOMA OR CARCINOMA, TESTES: ADENOMA): active; positive

[Ni]#[Sb]
carcinogen call (Species: RAT, Strain/Sex: F344/MALE, Route: INTRAMUSCULAR, Tumor Site: Type of Lesion: INJECTION SITE: SARCOMA): active; positive

CCOP(=S)(OCC)Oc1cc(C)nc(C(C)C)n1
carcinogen call (Species: MOUSE, Strain/Sex: B6C3F1/FEMALE, Route: ORAL, Dose: 0, 100, 200 PPM IN DIET, Dose: 0, 100, 200 PPM IN DIET): inactive; negative
carcinogen call (Species: MOUSE, Strain/Sex: B6C3F1/MALE, Route: ORAL, Dose: 0, 100, 200 PPM IN DIET, Dose: 0, 100, 200 PPM IN DIET): inactive; negative
carcinogen call (Species: RAT, Strain/Sex: F344/FEMALE, Route: ORAL, Dose: 0, 400, 800 PPM IN DIET, Dose: 0, 400, 800 PPM IN DIET): inactive; negative
carcinogen call (Species: RAT, Strain/Sex: F344/MALE, Route: ORAL, Dose: 0, 400, 800 PPM IN DIET, Dose: 0, 400, 800 PPM IN DIET): inactive; negative
